Tests used:
pigweed = experiment: Test B pre/postemergence pigweed; assay type: in vivo, Amaranthus retroflexus; settings: for Plant response rating, Redroot pigweed: scale of 0 to 10 where 0 is no effect and 10 is complete control
Outline: (§1)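 Test chemicals in a non-phytotoxic solvent mixture with surfactant were sprayed preemergence onto planted seeds and postemergence onto plants 2 to 18 cm tall (1- to 4-leaf stage). After twelve to sixteen days in a greenhouse, injury was visually rated against untreated controls from 0 (no effect) to 10 (complete control).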

corn = experiment: Test B pre/postemergence corn; assay type: in vivo, Zea mays
Outline: as §1

bedstraw = experiment: Test B pre/postemergence bedstraw; assay type: in vivo, Galium aparine; settings: for Bedstraw plant response rating: scale 0 to 10, 0 is no effect, 10 is complete control
Outline: as §1

smallflower flatsedge = experiment: Test B flood test smallflower flatsedge; assay type: in vivo, Cyperus difformis
Outline: (§2)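 Read-out is a visual response score from 0 (no effect) to 10 (complete control), assigned by comparison with untreated controls. Treatment was applied at the 2-leaf stage, and plants stayed in the greenhouse for twelve to sixteen days before scoring.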

wild oat = experiment: Test B pre/postemergence wild oat; assay type: in vivo, Avena fatua; settings: for Plant response rating, Wild oats: scale of 0 to 10 where 0 is no effect and 10 is complete control
Outline: as §1

duck salad = experiment: Test B flood test duck salad; assay type: in vivo, Heteranthera limosa
Outline: as §2

rice = experiment: Test B flood test rice; assay type: in vivo, Oryza sativa
Outline: as §2

purple nutsedge = experiment: Test B pre/postemergence purple nutsedge; assay type: in vivo, Cyperus rotundus
Outline: as §1

morningglory = experiment: Test B pre/postemergence morningglory; assay type: in vivo, Ipomoea hederacea; settings: for Plant response rating, Morningglory: scale of 0 to 10 where 0 is no effect and 10 is complete control
Outline: as §1

soybean = experiment: Test B pre/postemergence soybean; assay type: in vivo, Glycine max; settings: for Plant response rating, Soybean: scale of 0 to 10 where 0 is no effect and 10 is complete control
Outline: as §1

blackgrass = experiment: Test B pre/postemergence blackgrass; assay type: in vivo, Alopecurus myosuroides
Outline: as §1

giant foxtail = experiment: Test B pre/postemergence giant foxtail; assay type: in vivo, Setaria faberii
Outline: as §1

velvetleaf = experiment: Test B pre/postemergence velvetleaf; assay type: in vivo, Abutilon theophrasti; settings: for Plant response rating, Velvetleaf: scale of 0 to 10 where 0 is no effect and 10 is complete control
Outline: as §1

surinam grass = experiment: Test B pre/postemergence surinam grass; assay type: in vivo, Brachiaria decumbens
Outline: as §1

wheat = experiment: Test B pre/postemergence wheat; assay type: in vivo, Triticum aestivum; settings: for Plant response rating, Wheat: scale of 0 to 10 where 0 is no effect and 10 is complete control
Outline: as §1

crabgrass = experiment: Test B pre/postemergence crabgrass; assay type: in vivo, Digitaria sanguinalis
Outline: as §1

[1] = Postemergence, Rate 250 g/ha, scale 0 to 10
[2] = Preemergence, Rate 250 g/ha, scale 0 to 10, 0 is no effect, 10 is complete control
[3] = Preemergence, Rate 500 g/ha, scale 0 to 10, 0 is no effect, 10 is complete control
[4] = Rate 62 g/ha, Postemergence, scale 0 to 10 (0 no effect, 10 complete control)
[5] = Rate 125 g/ha, Postemergence, scale 0 to 10, 0 is no effect, 10 is complete control
[6] = Postemergence, Rate 500 g/ha, scale of 0 to 10 where 0 is no effect and 10 is complete control
[7] = Preemergence, Rate 62 g/ha, scale of 0 to 10 where 0 is no effect and 10 is complete control
[8] = Preemergence, Rate 125 g/ha, scale of 0 to 10 where 0 is no effect and 10 is complete control
[9] = Rate 62 g/ha, flood test species, Pre-emergence, visual evaluation after twelve to sixteen days
[10] = Rate 125 g/ha, under heading Pre-emergence, flood test species, visual evaluation after twelve to sixteen days
[11] = Rate 250 g/ha, Pre-emergence (flood test species), scale 0 to 10, 0 is no effect, 10 is complete control
[12] = Rate 500 g/ha, Pre-emergence, flood test species, scale 0 to 10 (0 no effect, 10 complete control)

CC(C)N(C(=O)n1oc(=O)n(CC(=O)N(C)C)c1=O)c1ccc(Cl)cc1 [Compound 477]
Redroot pigweed plant response rating (pigweed; [1]): 2
Plant response rating, Redroot pigweed (pigweed; Preemergence, Rate 62 g/ha): 0
Plant response rating, Redroot pigweed (pigweed; Preemergence, Rate 125 g/ha): 1
Redroot pigweed plant response rating (pigweed; [2]): 6
Redroot pigweed plant response rating (pigweed; [3]): 8
Redroot pigweed plant response rating (pigweed; [4]): 0
Redroot pigweed plant response rating (pigweed; [5]): 0
Corn plant response rating (corn; [1]): 0
Corn plant response rating (corn; [6]): 0
Plant response rating, Corn (corn; [7]): 0
Plant response rating, Corn (corn; [8]): 0
Corn plant response rating (corn; [2]): 0
Corn plant response rating (corn; [3]): 0
Corn plant response rating (corn; [4]): 0
Corn plant response rating (corn; [5]): 0
Plant response rating, Bedstraw (bedstraw; [7]): 0
Bedstraw plant response rating (bedstraw; Preemergence, Rate 500 g/ha): 3
Bedstraw plant response rating (bedstraw; Rate 125 g/ha, Postemergence): 0
Plant response rating, S. Flatsedge (0 to 10 scale, 0 is no effect, 10 is complete control) (smallflower flatsedge; [9]): 0
S. Flatsedge plant response rating (0 to 10 scale, 0 is no effect, 10 is complete control) (smallflower flatsedge; [10]): 0
S. Flatsedge plant response rating (smallflower flatsedge; [11]): 0
S. Flatsedge plant response rating (smallflower flatsedge; [12]): 0
Wild oats plant response rating (wild oat; [1]): 0
Plant response rating, Wild oats (wild oat; Preemergence, Rate 62 g/ha): 0
Plant response rating, Wild oats (wild oat; Preemergence, Rate 125 g/ha): 5
Wild oats plant response rating (wild oat; [2]): 5
Wild oats plant response rating (wild oat; [3]): 7
Wild oats plant response rating (wild oat; [4]): 0
Wild oats plant response rating (wild oat; [5]): 0
Plant response rating, Ducksalad (0 to 10 scale, 0 is no effect, 10 is complete control) (duck salad; [9]): 0
Ducksalad plant response rating (0 to 10 scale, 0 is no effect, 10 is complete control) (duck salad; [10]): 0
Ducksalad plant response rating (duck salad; [11]): 0
Ducksalad plant response rating (duck salad; [12]): 0
Plant response rating, Rice (0 to 10 scale, 0 is no effect, 10 is complete control) (rice; [9]): 0
Rice plant response rating (0 to 10 scale, 0 is no effect, 10 is complete control) (rice; [10]): 0
Rice plant response rating (rice; [11]): 0
Rice plant response rating (rice; [12]): 0
Nutsedge plant response rating (purple nutsedge; [1]): 0
Plant response rating, Nutsedge (purple nutsedge; [8]): 0
Nutsedge plant response rating (purple nutsedge; [2]): 0
Nutsedge plant response rating (purple nutsedge; [3]): 0
Nutsedge plant response rating (purple nutsedge; [4]): 0
Nutsedge plant response rating (purple nutsedge; [5]): 0
Morningglory plant response rating (morningglory; [1]): 10
Plant response rating, Morningglory (morningglory; Preemergence, Rate 62 g/ha): 0
Plant response rating, Morningglory (morningglory; Preemergence, Rate 125 g/ha): 0
Morningglory plant response rating (morningglory; [2]): 0
Morningglory plant response rating (morningglory; [3]): 0
Morningglory plant response rating (morningglory; [4]): 6
Morningglory plant response rating (morningglory; [5]): 7
Soybean plant response rating (soybean; [1]): 2
Plant response rating, Soybean (soybean; Preemergence, Rate 62 g/ha): 0
Plant response rating, Soybean (soybean; Preemergence, Rate 125 g/ha): 0
Soybean plant response rating (soybean; [2]): 3
Soybean plant response rating (soybean; [3]): 4
Soybean plant response rating (soybean; [4]): 1
Soybean plant response rating (soybean; [5]): 1
Blackgrass plant response rating (blackgrass; [1]): 6
Blackgrass plant response rating (blackgrass; [6]): 6
Plant response rating, Blackgrass (blackgrass; [7]): 0
Plant response rating, Blackgrass (blackgrass; [8]): 1
Blackgrass plant response rating (blackgrass; [2]): 7
Blackgrass plant response rating (blackgrass; [3]): 8
Blackgrass plant response rating (blackgrass; [4]): 0
Blackgrass plant response rating (blackgrass; [5]): 0
Giant foxtail plant response rating (giant foxtail; [1]): 6
Giant foxtail plant response rating (giant foxtail; [6]): 7
Plant response rating, Giant foxtail (giant foxtail; [7]): 6
Plant response rating, Giant foxtail (giant foxtail; [8]): 6
Giant foxtail plant response rating (giant foxtail; [2]): 9
Giant foxtail plant response rating (giant foxtail; [3]): 10
Giant foxtail plant response rating (giant foxtail; [4]): 2
Giant foxtail plant response rating (giant foxtail; [5]): 2
Velvetleaf plant response rating (velvetleaf; [1]): 0
Plant response rating, Velvetleaf (velvetleaf; Preemergence, Rate 62 g/ha): 0
Plant response rating, Velvetleaf (velvetleaf; Preemergence, Rate 125 g/ha): 0
Velvetleaf plant response rating (velvetleaf; [2]): 0
Velvetleaf plant response rating (velvetleaf; [3]): 0
Velvetleaf plant response rating (velvetleaf; [4]): 0
Velvetleaf plant response rating (velvetleaf; [5]): 0
B. signalgrass plant response rating (surinam grass; Postemergence, Rate 250 g/ha, scale 0 to 10, 0 no effect, 10 complete control): 5
B. signalgrass plant response rating (surinam grass; [6]): 5
Plant response rating, B. signalgrass (surinam grass; [7]): 0
Plant response rating, B. signalgrass (surinam grass; [8]): 2
B. signalgrass plant response rating (surinam grass; [2]): 4
B. signalgrass plant response rating (surinam grass; [3]): 6
B. signalgrass plant response rating (surinam grass; [4]): 0
B. signalgrass plant response rating (surinam grass; [5]): 0
Wheat plant response rating (wheat; [1]): 0
Plant response rating, Wheat (wheat; Preemergence, Rate 62 g/ha): 0
Plant response rating, Wheat (wheat; Preemergence, Rate 125 g/ha): 0
Wheat plant response rating (wheat; [2]): 0
Wheat plant response rating (wheat; [3]): 0
Wheat plant response rating (wheat; [4]): 0
Wheat plant response rating (wheat; [5]): 0
Crabgrass plant response rating (crabgrass; [1]): 5
Crabgrass plant response rating (crabgrass; [6]): 7
Plant response rating, Crabgrass (crabgrass; [7]): 8
Plant response rating, Crabgrass (crabgrass; [8]): 8
Crabgrass plant response rating (crabgrass; [2]): 10
Crabgrass plant response rating (crabgrass; [3]): 10
Crabgrass plant response rating (crabgrass; [4]): 1
Crabgrass plant response rating (crabgrass; [5]): 2

Reference: patent publication US6737383B1, “Herbicidal oxadiazolidines” (priority 1999, dated 2004)
